Assay results as given in patent US4584369A, “Anti-leukemic beta-glycosyl C-nucleosides” (Sloan-Kettering Institute for Cancer Research, priority 1984, dated 1986).
≈ marks a conversion by molar mass, not a printed value.

Columns and labels:
[1] = test system: P-815; experiment: In vitro activity in mouse leukemic cell line P-815; type: cell-based; settings: P815, P-815, in vitro, read-out: ID50 (the source's name)
Description: (§1) CNUCLEOSIDES IN MOUSE AND HUMAN LEUKYMIC CELL LINES
(§2) It is noted that the first compound in Table 1 is the compound reported in Lim et al (supra).

[2] = test system: L-1210; experiment: In vitro activity in mouse leukemic cell line L-1210; type: cell-based; settings: L1210, L-1210, in vitro, read-out: ID50 (the source's name)
Description: as §1, §2

[3] = test system: ALL-CCRF-CEM; experiment: In vitro activity in human leukemic cell line ALL-CCRF-CEM; type: cell-based; settings: read-out: ID50 (the source's name)
Description: as §1, §2

[4] = test system: P-815/0; experiment: In vivo activity of C-nucleosides in mice, P-815/0 line
Description: (§3) IN VIVO ACTIVITY OF CNUCLEOSIDES IN MICE
as §2

[5] = test system: HL-60; experiment: In vitro activity in human leukemic cell line HL-60; type: cell-based; settings: HL-60, in vitro, read-out: ID50 (the source's name)
Description: as §1, §2

[6] = test system: RAJI; experiment: In vitro activity in human leukemic cell line RAJI; type: cell-based; settings: read-out: ID50 (the source's name)
Description: as §1, §2

[7] = test system: P-815/ARA C; experiment: In vivo activity of C-nucleosides in mice, P-815/ARA C line
Description: as §3, §2

[8] = test system: L-1210/0; experiment: In vivo activity of C-nucleosides in mice, L-1210/0 line
Description: as §3, §2

[9] = test system: L-1210/MP; experiment: In vivo activity of C-nucleosides in mice, L-1210/MP line; settings: Q4D × 3,D1 @ 0.4 MG/KG
Description: as §3, §2

[10] = test system: leukemic cells; experiment: Anti-leukemic / antitumor activity using usual techniques of the art (summary statements); type: cell-based, mouse and human; settings: in words
Description: as §2

Row | IC50 [1] [µg/mL] | IC50 [2] [µg/mL] | IC50 [3] [µg/mL] | IC50 [5] [µg/mL] | IC50 [6] [µg/mL] | Compound | % ILS ([4]; Q4D × 4,D1 @ 40 MG/KG) [%] | % ILS ([4]; QD × 2/Q2D × 3 @ 60 MG/KG) [%] | % ILS ([7]; Q4D × 3,D1 @ 0.4 MG/KG) [%] | % ILS ([7]; Q4D × 3,D1 @ 0.7 MG/KG) [%] | % ILS ([8]; Q4D × 3,D1 @ 0.25 MG/KG) [%] | % ILS ([8]; QD × 5,D1 @ 0.5 MG/KG) [%] | % ILS [9] [%] | antitumor / anti-leukemic activity ([10]; listed as X--NH, R1 =OH) | antitumor / anti-leukemic activity ([10]; listed as first compound in Table 1)
1 | 5.6 (≈ 19.8 µM) |  |  |  |  | OC[C@H]1O[C@@H](c2c[nH]c3c(=S)[nH]cnc23)[C@H](O)[C@@H]1O [X = NH, R1 = SH, R2 = H] |  |  |  |  |  |  |  |  | 
2 | 0.03 (≈ 0.0954 µM) | 0.07 (≈ 0.223 µM) | 0.006 (≈ 0.0191 µM) | 0.008 (≈ 0.0254 µM) | 0.03 (≈ 0.0954 µM) | CSc1ncnc2c([C@@H]3O[C@H](CO)[C@@H](O)[C@H]3O)csc12 [X = S, R1 = SMe, R2 = H, 7-(β-D-Ribofuranosyl)-4-methylthio-thieno[3,2-d]pyrimidine] | 56.3 | 71.4 |  |  |  |  |  |  | 
3 | 0.0003 (≈ 0.00106 µM) | 0.0006 (≈ 0.00212 µM) | 0.0005 (≈ 0.00176 µM) | 0.0005 (≈ 0.00176 µM) | 0.002 (≈ 0.00706 µM) | Nc1ncnc2c([C@@H]3O[C@H](CO)[C@@H](O)[C@H]3O)csc12 [X = S, R1 = NH2, R2 = H, 7-(β-D-ribofuranosyl)-4-amino-thieno[3,2-d]pyrimidine] |  |  |  |  |  |  |  |  | 
4 | 0.001 (≈ 0.00376 µM) | 0.0008 (≈ 0.003 µM) | 0.0008 (≈ 0.003 µM) | 0.0003 (≈ 0.00113 µM) | 0.002 (≈ 0.00751 µM) | Nc1nc[nH]c2c([C@@H]3O[C@H](CO)[C@@H](O)[C@H]3O)cnc1-2 [X = NH, R1 = NH2, R2 = H, 7-(β-D-Ribofuranosyl)-4-amino-pyrrolo[3,2-d]pyrimidine] |  |  | 19.8 | 30.8 | 17.0 | 9.1 | 71.8 |  | 
5 | 2.5 (≈ 8.79 µM) | 3.3 (≈ 11.6 µM) | 0.9 (≈ 3.17 µM) | 0.4 (≈ 1.41 µM) | 4.2 (≈ 14.8 µM) | O=c1[nH]cnc2c([C@@H]3O[C@H](CO)[C@@H](O)[C@H]3O)csc12 [X = S, R1 = OH, R2 = H, 7-(β-D-Ribofuranosyl)-3H-4-oxo-thieno[3,2-d]pyrimidine] |  |  |  |  |  |  |  |  | 
6 | 0.5 (≈ 1.66 µM) | 0.6 (≈ 2 µM) | 1.6 (≈ 5.33 µM) | 0.4 (≈ 1.33 µM) | 0.9 (≈ 3 µM) | OC[C@H]1O[C@@H](c2csc3c(=S)[nH]cnc23)[C@H](O)[C@@H]1O [X = S, R1 = SH, R2 = H, 7-(β-D-ribofuranosyl)-3H-4-thiono-thieno[3,2-d]pyrimidine] |  |  |  |  |  |  |  |  | 
7 | > 10 | > 100 | > 100 | > 100 | > 100 | O=c1[nH]cnc2c([C@@H]3O[C@H](CO)[C@@H](O)[C@H]3O)c[nH]c12 [X = NH, R1 -- OH, R2 = H, reference compound] |  |  |  |  |  |  |  | essentially no antitumor activity | lack of activity
8 | 0.3 (≈ 1.01 µM) |  |  |  |  | CSc1ncnc2c([C@@H]3O[C@H](CO)[C@@H](O)[C@H]3O)c[nH]c12 [X = NH, R1 = SMe, R2 = H] |  |  |  |  |  |  |  |  | 
